Values joined by “and” are separate entries in the source; they are usually repeats but may differ in a detail not shown here. Equal values may be shown once.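 Grown in 96-well plates, cells were treated for 48 hours with each compound at five concentrations. Insufficient inhibition: endpoint recorded as highest concentration tested. GI50 is the concentration that inhibits growth by half. TGI marks complete inhibition of growth.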
Columns and labels:
Assay in all cases: growth of human tumour cells (NCI), 48 h
A498 renal = test system: A498 renal
HL-60(TB) leukemia = test system: HL-60(TB) leukemia
HOP-62 NSCLC = test system: HOP-62 NSCLC
HOP-92 NSCLC = test system: HOP-92 NSCLC
MDA-MB-435 = test system: MDA-MB-435
NCI/ADR-RES ovarian = test system: NCI/ADR-RES ovarian
T-47D breast = test system: T-47D breast
UACC-62 melanoma = test system: UACC-62 melanoma
UACC-257 melanoma = test system: UACC-257 melanoma
CAKI-1 renal = test system: CAKI-1 renal

Row | SMILES | GI50 (A498 renal) | TGI (A498 renal) | GI50 (HL-60(TB) leukemia) [nM] | TGI (HL-60(TB) leukemia) [µM] | GI50 (HOP-62 NSCLC) [nM] | TGI (HOP-62 NSCLC) [nM] | GI50 (HOP-92 NSCLC) [µM] | TGI (HOP-92 NSCLC) [µM] | GI50 (MDA-MB-435) [nM] | TGI (MDA-MB-435) [µM] | GI50 (NCI/ADR-RES ovarian) [µM] | TGI (NCI/ADR-RES ovarian) [µM] | GI50 (T-47D breast) [nM] | TGI (T-47D breast) [µM] | GI50 (UACC-62 melanoma) | TGI (UACC-62 melanoma) [µM] | GI50 (UACC-257 melanoma) [µM] | TGI (UACC-257 melanoma) [µM] | GI50 (CAKI-1 renal) [µM] | TGI (CAKI-1 renal) [µM]
1 | CO[C@H]1/C=C/C=C/C=C/C[C@H](OC(=O)[C@@H](C)NC(=O)C2CCCCC2)[C@H](C)[C@@H](O)/C(C)=C\CCC2=CC(=O)C=C(NC(=O)C1)C2=O | 282 nM | 2330 nM | 167 | 0.839 | 125 | 680 | 0.162 | 1.98 | 154 | 0.989 | 4 | > 50 | 105 | 1.06 | 80.1 nM | 0.682 | – | – | – | –
2 | COC(=O)C12CC(NC(=O)c3csc([C@@H](C[C@H](C(C)C)N(C)C(=O)[C@@H](NC(=O)[C@H]4CCCCN4C)C(C)C)OC(C)=O)n3)(C1)C2 | 15.3 nM and 4.73 nM | 829 nM and 194 nM | 0.345 | 0.00302 | 3.53 | – | > 33.3 | > 33.3 | 0.165 | 0.00169 | 0.147 | > 33.3 | 4.07 | – | 3.13 nM and 3.33 nM | > 33.3 | > 33.3 | > 33.3 | – | –
3 | COC(=O)C1=C(C)NC(C)=C(C(=O)OC)C1c1ccccc1[N+](=O)[O-] | 11300 nM | 56300 nM | 31700 | > 100 | > 100000 | > 100000 | 23.3 | > 100 | > 100000 | > 100 | 49.3 | > 100 | 50900 | > 100 | 29600 nM | > 100 | – | – | 38.8 | > 100
4 | Cc1c(-c2ccnc(N)n2)c2c(n1-c1ccccc1)C(=O)c1ccccc1C2=O | – | – | 7830 | 30.4 | 6610 | 37600 | > 100 | > 100 | 25200 | 67.3 | 15.8 | 66.8 | 51400 | > 100 | 27200 nM | 77.2 | 34.2 | 91.9 | 17 | 62.6
5 | N#CCCCCCn1c2ccccc2c2c3c(c4c5ccccc5[nH]c4c21)C(=O)N(O)C3=O | 1720 nM | 4940 nM | 1480 | 3.5 | 468 | 2790 | 2.46 | 5.24 | 1190 | 3.09 | 5.52 | > 100 | 455 | 8.65 | – | – | 1.95 | 5.45 | 1.85 | 4.01

— PubChem BioAssay (NCI)
